Consider 8 compounds from US20230295086A1, “NOVEL PSILOCIN DERIVATIVES HAVING PRODRUG PROPERTIES” (COMPASS […], priority 2020, published 2023).

The nature of series [1]: Kinetic solubility assay (Example 11). The procedure: Test and control compounds were diluted to 10 mM in DMSO and then further diluted 1 in 50 in 50 mM PB (pH 7.4) to a target concentration of 200 μM. Samples were vortexed for at least 2 minutes and then left to shake (800 rpm) at room temperature for 24 hours. Visual appearance was assessed before centrifugation and injection into a UPLC system to measure concentration. […] Each compound was tested in duplicate.

Series [2] is described as follows: Shake flask Log D assay (Example 11). The format is physicochemical. The conditions noted are these: 1-Octanol / 100 mM PB pH 7.4, shake flask, LC-MS/MS; test compound as hydrochloride. The procedure: Test and control compounds were diluted to 10 mM in DMSO. 2 μl of each stock solution was aliquoted into tubes in duplicate. 1-Octanol saturated phosphate buffer (PB) (pH 7.4) was prepared by adding 1-Octanol into 100 ml of 100 mM PB (7.4). PB saturated 1-Octanol was prepared by adding 10 ml of 100 mM PB (7.4) into 100 ml of 1-Octanol. 149 μl of each solution was aliquoted into the corresponding tubes. These were then mixed vigorously for 2 minutes and shaken (800 rpm) at room temperature for one hour. The appropriate volume of buffer and 1-Octanol layer samples was aliquoted and diluted, before detection using LC-MS/MS.
Log D was calculated according to the following equation: […]

The nature of a further series: Micro shake flask Log D. The following applies: for Mean LogD: Octanol:PBS 1:9, pH 7.4, 10 μM, six replicates, novel compounds as hemifumarate; for logD at 2 h: pH 7.4. Here is the method: 6 replicates of each test compound were incubated at 10 μM in a 1:9 ratio of Octanol: PBS at pH 7.4. Following a two hour incubation at room temperature shaking at 600 rpm, the incubation plate was centrifuged for 15 minutes to separate the layers and then two aliquots were removed from the PBS layer. The first was left neat and the second was diluted 10-fold to give dilute samples. Internal standards were added to both the calibration curve and the PBS incubation samples for analysis on LC MS/MS.
All 6 replicates of the neat samples were averaged to give one value for each, with the same calculation performed for the dilute sample values.

In series [3] the target is T1, serotonin 2A (5-HT2A) receptor (Mus musculus, UniProt P35363).
T1 construct: tissue Charles River UK; host or cells: whole living male C57BL/6J mice (in vivo, oral gavage)
T1 sequence (P35363 whole entry): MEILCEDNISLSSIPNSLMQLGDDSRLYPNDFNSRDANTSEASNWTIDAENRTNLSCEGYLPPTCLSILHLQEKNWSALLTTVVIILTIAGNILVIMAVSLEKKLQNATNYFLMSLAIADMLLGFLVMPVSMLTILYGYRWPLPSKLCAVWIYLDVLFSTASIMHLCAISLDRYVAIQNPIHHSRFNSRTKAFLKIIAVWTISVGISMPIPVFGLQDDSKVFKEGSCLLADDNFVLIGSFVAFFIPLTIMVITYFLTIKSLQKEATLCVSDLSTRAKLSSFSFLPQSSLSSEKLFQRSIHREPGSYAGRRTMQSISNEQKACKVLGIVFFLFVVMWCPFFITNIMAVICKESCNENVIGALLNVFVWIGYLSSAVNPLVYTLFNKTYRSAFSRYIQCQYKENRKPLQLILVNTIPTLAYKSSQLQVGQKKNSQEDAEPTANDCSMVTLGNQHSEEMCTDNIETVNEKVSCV
The series is described as follows: Head twitch response (HTR) in mice. The conditions noted are these: oral gavage 0.3 mg/kg. Type of series: in vivo, male C57BL/6J mice.

Series [4] can be described thus: Intake study: serum concentrations after oral ingestion by two volunteers. The conditions noted are these: for c(Psilocin): study 1. Here is the method: Two volunteers (1 M, 1 F) ingested about 1 mg of each one of P1 and M1 (Study 1) and P2 and M2 (Study 2) in gelatin capsules (exact amounts in Tables 3 and 4). One blood sample was collected prior to ingestion of the substances and served as a zero control. After ingestion samples were collected for about 8 h with increasing time intervals between sample taking (exact protocol in Tables 4 and 5). […] The obtained sera were transferred in plastic tubes and NaF (ca. 30 mg) and ascorbic acid (ca. 5 mg) were added to increase analytes stability.
200 μL serum were spiked with an internal standard solution (10 μL) and ACN (600 μL) was added to precipitate soluble proteins. Before mixing thoroughly ammonium formate (10 M, 200 μL) was added separate the aqueous from the organic phase. After centrifugation (6 min, 4,000×g), 500 μL of the organic phase were transferred into another vial and evaporated to dryness at 40° C. under a gentle stream of nitrogen. Samples were reconstituted in 100 μL mobile phase (A/B, 90/10, v/v) and used for analysis. For quantification a blank sample and a six point calibration (0.5, 1.0, 2.0, 5.0, 10, 20 ng/mL) in calf serum were prepared as described above.
The HPLC-MS system consisted of a Nexera X2 UHPLC system composed of three LC-30AD pumps, a DGU-30A3 degasser, a SIL-30AC autosampler, a CTO-10AS column oven and a CBM-20A controller (Shimadzu, Duisburg, Germany) coupled to a QTRAP 6500plus triple quadrupole linear ion trap mass spectrometer equipped with a TurbolonSpray Interface (Sciex, Darmstadt, Germany). The MS was operated in positive electrospray ionization mode. Data acquisition was performed in scheduled multiple reaction monitoring mode (detection window: 60 s) using Analyst software (version 1.7). MS parameters (declustering potential, entrance potential, collision energy, and collision cell exit potential) were optimized for all substances to obtain the best possible signal intensities (summary of the MRM parameters are given in Table 5). Ion source temperature and ion source voltage were set to 550° C. and +5500 V, respectively. Dwell time was 20 ms for every MRM transition. Curtain gas (N2) pressure was 35 psi, ion source gas 1 and 2 (compressed air) pressure were 50 and 60 psi, respectively, and collision gas (N2) pressure was set to “high.” Chromatographic separation was performed on a Kinetex® biphenyl column (100×2.1 mm, 2.6 μm particle size, Phenomenex, Aschaffenburg, Germany) with a corresponding guard column (SecurityGuard™ ULTRA Cartridges UHPLC Biphenyl for 2.1 mm ID columns, Phenomenex, Aschaffenburg, Germany). The autosampler and the column oven temperature were set to 10° C. and 40° C., respectively. The injection volume was 10 μL.

Series [5] is described as follows: Kinetic turbidimetric solubility assay. The following applies: 0.01 M PBS pH 7.4, 2% DMSO, room temperature, novel compounds as hemifumarate, psilocybin and psilocin free base; for solubility at 5 min: pH 7.4, aqueous buffer, kinetic from dmso stock. Here is the method: Each test compound was diluted to 10 mM in DMSO. From this solution, six further dilutions of each test compound were prepared in DMSO (0.02, 0.1, 0.2, 1, 2, and 5 mM). […] Three replicate wells were designated per concentration. Following the dilutions in buffer, plates were incubated at room temperature shaking for 5 minutes before the absorbance was measured at 620 nm using a Molecular Devices SpectraMax384 UV detector. Nicardipine was tested as a control compound.
Solubility was estimated from the concentration of test compound that produced an increase in absorbance above a threshold of 0.005 absorbance units and was normalized to the DMSO blank.

The mark [6] stands for this setting: serum, oral intake of about 1 mg prodrug, mean of 2 volunteers.

Structures are written as SMILES. ≈ marks a conversion by molar mass, not a printed value. Marks after values point to notes of the source that are not given here.

In series [1] (50 mM PB pH 7.4, target 200 μM, 24 hours shaking at room temperature, UPLC, test compound as hydrochloride), `NC(=O)N1c2ccccc2C=Cc2ccccc21` [Carbamazepine] registered a Detected concentration of 180 µM. Also, the solubility (usually the dissolved amount per volume that the medium holds) at 24 h in series [1] (pH 7.4, aqueous buffer, kinetic from dmso stock) is over 180 µM.
`CN(C)CCCN1c2ccccc2Sc2ccc(Cl)cc21` [Chlorpromazine]: in series [2], the pH-dependent lipophilicity (logD) (in general, lipophilicity at a set pH, counting ionised and neutral species) at 1 h was determined as 3.28.
In the case of `CCOC(=O)Oc1cccc2[nH]cc(CCN(C)C)c12` [Psilocin-4-yl-ethylcarbonate, psilocin-4-yl ethyl carbonate], the “Mean LogD” value in the series “Micro shake flask Log D” turned out to be 1.22. In addition, the “Mean number of head twitches 0-15 mins” value in series [3] (N = 8) was determined as 3.5. For the same compound, the “Mean number of head twitches 15-30 mins” value in series [3] (N = 8) is 3.13. Moreover, the “Mean number of head twitches 30-45 mins” value in series [3] (N = 8) is reported as 3.38. The “Mean number of head twitches 45-60 mins” value in series [3] (N = 8) worked out at 1.13. Also, the “Mean number of head twitches Total 0-60 mins” value in series [3] (N = 8, 0.3 mg/kg) is 10.84. For the same compound, the “Parent prodrug itself in serum (not detected, LOD)” value in series [4] (serum after oral ingestion of about 1 mg) was under 0.05 ng/mL. The Cmax of psilocin in series [4] (setting [6]) stood at 1.1 ± 0.5 ng/mL. In addition, the Tmax of psilocin in series [4] (setting [6]) stood at 0.933 ± 0.217 h. The “elimination constant kel of psilocin” value in series [4] (setting [6]) worked out at 0.0039 min⁻¹. For the same compound, the “elimination half life t1/2 of psilocin” value in series [4] (setting [6]) worked out at 3.18 h. The “c(Psilocin)” value is recorded as 0.15* ng/mL in series [4] (serum, test person A, oral P1 1.03 mg salt, 15 min, below LOQ, extrapolated); 0.34 ng/mL in series [4] (serum, test person A, oral P1 1.03 mg salt, 21 min); 0.51 ng/mL in series [4] (serum, test person A, oral P1 1.03 mg salt, 31 min); 0.82 ng/mL in series [4] (serum, test person A, oral P1 1.03 mg salt, 49 min); 1.45 ng/mL in series [4] (serum, test person A, oral P1 1.03 mg salt, 65 min); 1.02 ng/mL in series [4] (serum, test person A, oral P1 1.03 mg salt, 87 min). The “c(Psilocin)” value is 1.02 ng/mL in series [4] (serum, test person A, oral P1 1.03 mg salt, 120 min); 0.59 ng/mL in series [4] (serum, test person A, oral P1 1.03 mg salt, 155 min); 0.98 ng/mL in series [4] (serum, test person A, oral P1 1.03 mg salt, 165 min); 0.58 ng/mL in series [4] (serum, test person A, oral P1 1.03 mg salt, 240 min); 0.34 ng/mL in series [4] (serum, test person A, oral P1 1.03 mg salt, 338 min); 0.33 ng/mL in series [4] (serum, test person A, oral P1 1.03 mg salt, 371 min). Also, the “c(Psilocin)” value in series [4] (serum, test person A, oral P1 1.03 mg salt, 424 min, below LOQ, extrapolated) is recorded as 0.29* ng/mL; in series [4] (serum, test person A, oral P1 1.03 mg salt, 486 min, below LOQ, extrapolated) it was 0.26* ng/mL; in series [4] (serum, test person B, oral P1 0.99 mg salt, 6 min, below LOQ, extrapolated) it was 0.22* ng/mL; in series [4] (serum, test person B, oral P1 0.99 mg salt, 13 min, below LOQ, extrapolated) it was 0.25* ng/mL; in series [4] (serum, test person B, oral P1 0.99 mg salt, 20 min), 0.38 ng/mL; in series [4] (serum, test person B, oral P1 0.99 mg salt, 30 min), 0.60 ng/mL. In addition, the “c(Psilocin)” value is 0.76 ng/mL in series [4] (serum, test person B, oral P1 0.99 mg salt, 47 min); 0.54 ng/mL in series [4] (serum, test person B, oral P1 0.99 mg salt, 64 min); 0.60 ng/mL in series [4] (serum, test person B, oral P1 0.99 mg salt, 83 min); 0.43 ng/mL in series [4] (serum, test person B, oral P1 0.99 mg salt, 114 min); 0.37 ng/mL in series [4] (serum, test person B, oral P1 0.99 mg salt, 165 min); 0.32 ng/mL in series [4] (serum, test person B, oral P1 0.99 mg salt, 232 min). The “c(Psilocin)” value is on record as 0.25* ng/mL in series [4] (serum, test person B, oral P1 0.99 mg salt, 322 min, below LOQ, extrapolated); 0.24* ng/mL in series [4] (serum, test person B, oral P1 0.99 mg salt, 369 min, below LOQ, extrapolated); 0.22* ng/mL in series [4] (serum, test person B, oral P1 0.99 mg salt, 432 min, below LOQ, extrapolated).
As to `CN(C)CCc1c[nH]c2cccc(OP(=O)(O)O)c12` [Psilocybin, psilocybin, reference compound], in series [5], the solubility at 5 min is at least 100 µM. The pH-dependent lipophilicity (logD) at 2 h in the series “Micro shake flask Log D” was found to be 0.57.
Turning to `CCOC(=O)Oc1cccc2[nH]cc(CCN(C)CC)c12` [N-methyl-N-ethyltryptamine-4-yl ethylcarbonate], the Solubility (usually the concentration that dissolves in the medium under given conditions) in series [5] was over 200 µM. For the same compound, in the series “Micro shake flask Log D”, the “Mean LogD” value was found to be 1.01. Further, in series [3] (N = 8), the “Mean number of head twitches 15-30 mins” value came out at 3.5, the “Mean number of head twitches 30-45 mins” value is recorded as 2.38 and the “Mean number of head twitches 45-60 mins” value worked out at 0.38.
With `CC(C)(C)NCC(O)COc1cccc2c1CC(O)C(O)C2` (stereo not shown) [Nadolol], the pH-dependent lipophilicity (logD) at 1 h in series [2] is -1.33.
The compound `COC(=O)C1=C(C)NC(C)=C(C(=O)OCCN(C)Cc2ccccc2)C1c1cccc([N+](=O)[O-])c1` (stereo not shown) [Nicardipine] gave a solubility at 5 min in series [5] of 24.4 µM (≈ 11.7 µg/mL). In other words, the double-digit micromolar range.
`CN(C)CCc1c[nH]c2cccc(O)c12` [Psilocin, psilocin] yielded a solubility at 5 min in series [5] of over 200 µM. Moreover, the logD at 2 h in “Micro shake flask Log D” is 1.01.
